Data from patent US4247535A, “Modified cyclodextrin sulfate salts as complement inhibitors” (American Cyanamid Company, priority 1979, dated 1981).
Counter-ions that a name gives are not always drawn.

Columns and labels:
activated human C1 = activated human C1 (Homo sapiens, UniProt P09871); test: Test Code 026 (C1 inhibitor); assay type: biochemical; details: activity in wells, twofold serial dilution assay; higher well number = higher activity
From the text: (§1) An active inhibitor protects C2 from C1 and C4; (ii) Test Code 035 (C3-C9 inhibitor)--This test determines the ability of the late components of human complement (C3-C9) to lyse EAC 142 in the presence of appropriate dilutions of the test compound. An active inhibitor protects EAC 142 from lysis by human C3-C9; (iii) Test Code 036 (C-Shunt inhibitor)--In this test human erythrocytes rendered fragile are lysed in autologous serum via the shunt pathway activated by cobra venom factor in the presence of appropriate dilutions of the test compound. Inhibition of the shunt pathway results in failure of lysis; (iv) Forssman Vasculitis Test--Here, the well known complement dependent lesion, Forssman vasculitis, is produced in guinea pigs by intradermal injection of rabbit anti-Forssman antiserum. […]

[1] = tested on: late components of human complement (C3-C9); test: Test Code 035 (C3-C9 inhibitor), lysis of EAC 142; assay type: biochemical; details: activity in wells, twofold serial dilution assay; higher well number = higher activity
From the text: as §1

shunt pathway = test: Test Code 036 (C-Shunt inhibitor), lysis of fragile human erythrocytes in autologous serum, cobra venom factor; assay type: cell-based; details: activity in wells, twofold serial dilution assay; higher well number = higher activity
From the text: as §1

whole complement = test: Complement Level Reduction Test (in vivo, capillary tube assay of serum); details: 200 mg/kg i.v. or i.p.
From the text: An active inhibitor protects C2 from C1 and C4; (ii) Test Code 035 (C3-C9 inhibitor)--This test determines the ability of the late components of human complement (C3-C9) to lyse EAC 142 in the presence of appropriate dilutions of the test compound. An active inhibitor protects EAC 142 from lysis by human C3-C9; (iii) Test Code 036 (C-Shunt inhibitor)--In this test human erythrocytes rendered fragile are lysed in autologous serum via the shunt pathway activated by cobra venom factor in the presence of appropriate dilutions of the test compound. Inhibition of the shunt pathway results in failure of lysis; (iv) Forssman Vasculitis Test--Here, the well known complement dependent lesion, Forssman vasculitis, is produced in guinea pigs by intradermal injection of rabbit anti-Forssman antiserum. The lesion is measured in terms of diameter, edema and hemorrhage and the extent to which a combined index of these is inhibited by prior intraperitoneal injection of the test compound at 200 mg/kg is then reported, unless otherwise stated; (v) Forssman Shock Test--Lethal shock is produced in guinea pigs by an i.v. injection of anti-Forssman antiserum and the harmonic mean death time of treated guinea pigs is compared with that of simultaneous controls; (vi) Complement Level Reduction Test--In this test, the above dosed guinea pigs, or others, are bled for serum and the complement level is determined in undiluted serum by the capillary tube method of U.S. Pat. No. 3,876,376 and compared to undosed control guinea pigs; and (vii) Cap 50 Test--Here, appropriate amounts of the test compound are added to a pool of guinea pig serum in vitro, after which the undiluted serum capillary tube assay referred to above is run. The concentration of compound inhibiting 50% is reported.
With reference to Table I, guinea pigs weighing about 300 g were dosed intravenously (i.v.) or intraperitoneally (i.p.) with 200 mg/kg of the test compound dissolved in saline and adjusted to pH 7-8. […] Percent inhibition was calculated by comparison with simultaneous controls. […]

complement system = details: reported, British Journal of Experimental Pathology, 33, 327-339 (1952); cited from earlier work
human serum = details: both in vitro and in vivo, judged by reduction in total hemolytic complement activity; cited from earlier work
[2] = tested on: hereditary angioneurotic edema; details: reported in the literature; cited from earlier work

Chain of activated human C1 (P09871 16-688): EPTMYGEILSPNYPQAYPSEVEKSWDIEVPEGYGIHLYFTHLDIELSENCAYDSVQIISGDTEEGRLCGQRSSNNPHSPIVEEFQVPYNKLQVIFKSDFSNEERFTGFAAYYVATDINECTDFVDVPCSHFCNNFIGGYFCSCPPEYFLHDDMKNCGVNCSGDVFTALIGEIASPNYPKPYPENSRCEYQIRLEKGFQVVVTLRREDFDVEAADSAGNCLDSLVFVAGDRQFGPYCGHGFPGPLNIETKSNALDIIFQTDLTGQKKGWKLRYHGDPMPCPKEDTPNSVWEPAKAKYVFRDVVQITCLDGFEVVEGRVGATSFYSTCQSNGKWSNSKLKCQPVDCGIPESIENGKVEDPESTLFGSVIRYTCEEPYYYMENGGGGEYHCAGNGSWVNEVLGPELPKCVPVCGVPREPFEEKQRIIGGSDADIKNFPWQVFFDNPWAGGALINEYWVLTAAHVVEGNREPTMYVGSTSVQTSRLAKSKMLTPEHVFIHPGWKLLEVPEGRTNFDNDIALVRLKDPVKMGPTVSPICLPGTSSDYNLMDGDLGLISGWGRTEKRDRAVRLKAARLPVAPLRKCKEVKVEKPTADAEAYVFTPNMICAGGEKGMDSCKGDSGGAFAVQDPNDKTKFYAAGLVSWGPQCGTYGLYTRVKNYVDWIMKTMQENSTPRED
Chain of activated human C1 (P00736 18-705 partner): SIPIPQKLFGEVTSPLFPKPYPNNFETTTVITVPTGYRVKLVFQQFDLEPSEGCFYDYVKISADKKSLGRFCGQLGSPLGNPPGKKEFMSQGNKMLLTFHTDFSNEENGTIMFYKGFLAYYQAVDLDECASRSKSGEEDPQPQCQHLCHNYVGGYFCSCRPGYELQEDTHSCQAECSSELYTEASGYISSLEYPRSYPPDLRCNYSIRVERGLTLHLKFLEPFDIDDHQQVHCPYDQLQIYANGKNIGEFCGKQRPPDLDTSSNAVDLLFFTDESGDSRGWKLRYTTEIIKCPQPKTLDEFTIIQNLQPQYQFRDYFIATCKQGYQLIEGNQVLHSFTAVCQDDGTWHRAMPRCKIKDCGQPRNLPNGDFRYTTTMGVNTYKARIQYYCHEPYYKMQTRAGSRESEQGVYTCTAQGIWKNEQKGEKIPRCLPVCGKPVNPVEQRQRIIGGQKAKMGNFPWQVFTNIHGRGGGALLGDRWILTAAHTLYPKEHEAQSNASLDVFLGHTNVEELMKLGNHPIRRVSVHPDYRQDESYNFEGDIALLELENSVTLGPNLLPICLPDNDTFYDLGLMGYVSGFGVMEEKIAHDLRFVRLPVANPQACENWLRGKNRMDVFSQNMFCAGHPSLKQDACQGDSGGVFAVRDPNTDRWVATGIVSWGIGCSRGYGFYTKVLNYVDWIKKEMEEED
Chain of activated human C1 (P02745 23-245 partner): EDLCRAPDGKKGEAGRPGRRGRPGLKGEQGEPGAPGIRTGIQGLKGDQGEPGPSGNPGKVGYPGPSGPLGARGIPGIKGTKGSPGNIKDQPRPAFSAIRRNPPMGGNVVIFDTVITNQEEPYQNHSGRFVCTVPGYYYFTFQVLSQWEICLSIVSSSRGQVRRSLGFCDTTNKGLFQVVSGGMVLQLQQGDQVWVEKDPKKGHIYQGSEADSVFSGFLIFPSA
Chain of activated human C1 (P02746 28-253 partner): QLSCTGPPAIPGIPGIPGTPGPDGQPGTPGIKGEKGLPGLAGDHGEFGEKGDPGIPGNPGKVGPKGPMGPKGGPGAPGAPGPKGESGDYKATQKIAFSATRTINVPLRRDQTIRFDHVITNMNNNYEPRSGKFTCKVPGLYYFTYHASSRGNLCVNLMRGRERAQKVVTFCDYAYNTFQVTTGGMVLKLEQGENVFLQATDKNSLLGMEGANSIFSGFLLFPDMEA
Chain of activated human C1 (P02747 29-245 partner): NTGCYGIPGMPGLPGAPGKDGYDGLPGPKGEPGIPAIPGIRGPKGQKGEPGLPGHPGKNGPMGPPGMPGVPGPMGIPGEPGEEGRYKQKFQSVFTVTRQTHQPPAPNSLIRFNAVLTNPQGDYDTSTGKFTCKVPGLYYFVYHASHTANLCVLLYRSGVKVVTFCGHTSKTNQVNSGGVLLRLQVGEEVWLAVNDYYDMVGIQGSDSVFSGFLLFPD

For `O=C(O)[C@H]1O[C@@H]2O[C@H]3[C@H](OS(=O)(=O)O)[C@@H](OS(=O)(=O)O)[C@@H](O[C@H]4[C@H](OS(=O)(=O)O)[C@@H](OS(=O)(=O)O)[C@@H](O[C@H]5[C@H](OS(=O)(=O)O)[C@@H](OS(=O)(=O)O)[C@@H](O[C@H]6[C@H](OS(=O)(=O)O)[C@@H](OS(=O)(=O)O)[C@@H](O[C@H]7[C@H](OS(=O)(=O)O)[C@@H](OS(=O)(=O)O)[C@@H](O[C@H]8[C@H](OS(=O)(=O)O)[C@@H](OS(=O)(=O)O)[C@@H](O[C@H]1[C@H](OS(=O)(=O)O)[C@H]2OS(=O)(=O)O)O[C@@H]8C(=O)O)O[C@@H]7C(=O)O)O[C@@H]6C(=O)O)O[C@@H]5C(=O)O)O[C@@H]4C(=O)O)O[C@@H]3C(=O)O` [5,5',5",5'",5"",5'"",5"""-Heptacarboxy-6,6',6",6'",6"",6'"",6"""-heptademethyl-β-cyclodextrin, heptasodium salt, tetradecakis (H-sulfate), tetradecasodium salt], the “026 In Vitro Activity” value (activated human C1) was “+7 wells”, the “035 In Vitro Activity” value [1] was “+1 wells” and the “036 In Vitro Activity” value (shunt pathway) was “+3 wells”. For the same molecule, the “In Vivo Activity (Guinea Pig) % Inhibition 30 min.” value (whole complement; 30 min.) was -18%, the “In Vivo Activity (Guinea Pig) % Inhibition 60 min.” value (whole complement; 60 min.) was “+14%” and the “In Vivo Activity (Guinea Pig) % Inhibition 120 min.” value (whole complement; 120 min.) was -40%.

In the case of heparin, the anticomplementary effect (complement system) is given as “anticomplementary effect”.

For pentosan-polysulfoester, the “anticomplementary activity on human serum” value (human serum) is listed as “anticomplementary activity”.

In the case of `NCCCCCC(=O)O` [epsilon-aminocaproic acid], the “treatment of hereditary angioneurotic edema” value [2] is given as “used with success”.

For `Nc1ccc2cc(S(=O)(=O)O)cc(O)c2c1N=Nc1ccc(NC(=O)Nc2ccc(N=Nc3c(N)ccc4cc(S(=O)(=O)O)cc(O)c34)c(S(=O)(=O)O)c2)cc1S(=O)(=O)O` [chlorazol fast pink, 3,3'-ureylenebis-[6-(2-amino-8-hydroxy-6-sulfo-1-naphthylazo)]benzenesulfonic acid, tetrasodium salt], the anticomplementary effect (complement system) is listed as “anticomplementary effect”.

With `O=C(O)[C@H]1O[C@@H]2O[C@H]3[C@H](O)[C@@H](O)[C@@H](O[C@H]4[C@H](O)[C@@H](O)[C@@H](O[C@H]5[C@H](O)[C@@H](O)[C@@H](O[C@H]6[C@H](O)[C@@H](O)[C@@H](O[C@H]7[C@H](O)[C@@H](O)[C@@H](O[C@H]8[C@H](O)[C@@H](O)[C@@H](O[C@H]1[C@H](O)[C@H]2O)O[C@@H]8C(=O)O)O[C@@H]7C(=O)O)O[C@@H]6C(=O)O)O[C@@H]5C(=O)O)O[C@@H]4C(=O)O)O[C@@H]3C(=O)O` [5,5',5",5'",5"",5'"",5"""-Heptacarboxy-6,6',6",6'",6"",6'"",] [5,5',5",5'",5"",5'"",5"""-Heptacarboxy-6,6',6",6'",6"",6'"",6"""-heptademethyl-β-cyclodextrin] the “035 In Vitro Activity” value [1] was “N”.

For `NC[C@H]1CC[C@H](C(=O)O)CC1` [tranexamic acid], the “treatment of hereditary angioneurotic edema” value [2] is given as “used with success”.
